Test results published in patent US11345659B2, “Pipecolic esters for inhibition of the proteasome” (THE BOARD OF REGENTS OF THE UNIVERSY OF TEXAS SYSTEM, priority 2018, dated 2022).
pIC50: −log10 of the molar value.

Legend:
[1] = biological target: T1, 20 S proteasome (Homo sapiens, UniProt P25787+P25789); test: PGPH peptidase activity of tRpt5-activated 20 S core; format: biochemical; conditions: core activated with tRpt5
T1 construct: purified from erythrocytes; purchased Enzo Life Sciences, Inc. (Farmingdale, N.Y.); host or cells: human erythrocytes
Protocol: Human housekeeping 20 S and 26 S and complexes purified from erythrocytes were purchased from Enzo Life Sciences, Inc. (Farmingdale, N.Y.). The 1 mg/ml stock 20 S proteasome was diluted to 0.2 mg/ml working solution in 50 mM Tris/HCl, pH 8 containing 20% glycerol (dilution buffer). For the 26 S proteasome stock, the dilution buffer was supplemented with 2 mM ATP, 1 mM MgCl2, and 1 mM DTT (dithiothreitol). […] of fluorescence emitted by 7-amino-4-methylcoumarin ([…]; Bachem Bioscience Inc., Philadelphia, Pa.), used at concentration of 100 μM. Free AMC (Sigma-Aldrich, St. Louis, Mo.) was used as the standard. The Rpt5 C-terminal peptide was synthesized (standard solid-phase peptide chemistry) and purified to at least 98% purity by GenScript (Piscataway, N.J.). The Rpt5 peptide and the peptide substrate were dissolved in dimethylsulfoxide (DMSO) and such stock solutions were stored at −20° C. […]
The reaction was carried out in 96-well plates, in 100 μL of reaction mixture, for 1 hour at 37° C. […] The reaction rates were calculated from a linear segment of kinetic curves constructed from measurements in 1-minutes intervals (Fluoroskan Ascent plate reader; Thermo Fisher Scientific Inc., Waltham, Mass.). Reaction rates were calculated using a linear fit executed by Slope Analyzer and Enzyme Kinetics applications launched within Origin Pro 2017 (OriginLab). […]

[2] = biological target: T2, FKBP12 (Homo sapiens, UniProt P62942); test: Suppression of rapamycin inhibition of S6 phosphorylation by competing for FKBP12; format: cell-based; conditions: RPMI 8226, 24 hours; FK506 10 μM, compound 3 and B1 0.2 μM, with rapamycin
T2 construct: endogenous in cells; host or cells: RPMI 8226 (ATCC)
T2 sequence (P62942 whole entry): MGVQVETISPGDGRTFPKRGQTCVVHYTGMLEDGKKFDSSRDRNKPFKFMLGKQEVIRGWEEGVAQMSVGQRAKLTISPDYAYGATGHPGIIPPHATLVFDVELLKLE
Protocol: Human multiple myeloma RPMI 8226 cells were purchased from American Type Culture Collection (ATCC; Manassas, Va.) and cultured according to ATCC specifications. […] The content of live cells was determined by excluding the Trypan Blue-stained cells. The cells were counted with TC20 Automated Cell Counter (Bio-Rad Laboratories, Hercules, Calif.) and EC50 was calculated with Origin Pro 2017 (OriginLab Corporation, Northampton, Mass.). When indicated, the cells were harvested, washed twice in PBS, resuspended in dilution buffer and stored in −80° C. To prepare crude lysates the thawed preparations were vortexed with glass beads and centrifuged for 5 min 5,000×g (4° C.). The supernate was centrifuged for 20 min 14,000×g. The resulting supernate was used as “crude lysate.” SDS-PAGE was carried in 12% acrylamide, Tris-glycine gels from Invitrogen. Chameleon Duo (Li-Cor) and Rainbow RPN800E (GE Healthcare) molecular weight standards were separated on each gel alongside lysates. The proteins were transferred to nitrocellulose membrane in a semi-dry system. The membranes were probed with specific primary antibodies from Life Technologies (S6, PS6) and Li-Cor (COX IV), and then with secondary antibodies from Li-Cor. In each experiment visualization of S6, PS6 and COX IV was performed on the same membrane with Odyssey Infrared Imaging System (Li-Cor). […]

## COc1cc(CCCOC(=O)[C@@H]2CCCCN2C(=O)OCc2ccccc2)cc(OC)c1OC [Compound 3, 1-benzyl 2-(3-(3,4,5-trimethoxyphenyl)propyl) (S)-piperidine-1,2-dicarboxylate]
[1]
  pIC50: 5.59
[2]
  suppression of rapamycin inhibition of S6 phosphorylation (FKBP12 binding): did not mimic the actions of FK506
